Laboratory results taken from the supplement of paper PMC13380429.

Assays:
Settings in all cases: 72 h
[1] = tested on: Calu-3; assay: relative viability EC50 (midpoint between 100% and the lowest measured viability); higher = less toxic
[2] = tested on: HepG2; assay: as above
[3] = tested on: U2OS; assay: as above
[4] = tested on: Caco-2; assay: as above
[5] = tested on: Vero E6; assay: as above
[6] = tested on: Calu-3; assay: cell viability relative to DMSO; higher = less toxic
[7] = tested on: HepG2; assay: as above
[8] = tested on: U2OS; assay: as above
[9] = tested on: Caco-2; assay: as above
[10] = tested on: Vero E6; assay: as above
[11] = tested on: Calu-3; assay: drug sensitivity score (DSS) for viability; higher = more toxic; extreme values may be limits of the assay
[12] = tested on: HepG2; assay: as above
[13] = tested on: U2OS; assay: as above
[14] = tested on: Caco-2; assay: as above
[15] = tested on: Vero E6; assay: as above

| Compound | relative viability EC50 [1] | relative viability EC50 [2] | relative viability EC50 [3] | relative viability EC50 [4] | relative viability EC50 [5] | cell viability ([6]; 1 nM) | cell viability ([6]; 10 nM) | cell viability ([6]; 100 nM) | cell viability ([6]; 1000 nM) | cell viability ([6]; 10000 nM) | cell viability ([7]; 1 nM) | cell viability ([7]; 10 nM) | cell viability ([7]; 100 nM) | cell viability ([7]; 1000 nM) | cell viability ([7]; 10000 nM) | cell viability ([8]; 1 nM) | cell viability ([8]; 10 nM) | cell viability ([8]; 100 nM) | cell viability ([8]; 1000 nM) | cell viability ([8]; 10000 nM) | cell viability ([9]; 1 nM) | cell viability ([9]; 10 nM) | cell viability ([9]; 100 nM) | cell viability ([9]; 1000 nM) | cell viability ([9]; 10000 nM) | cell viability ([10]; 1 nM) | cell viability ([10]; 10 nM) | cell viability ([10]; 100 nM) | cell viability ([10]; 1000 nM) | cell viability ([10]; 10000 nM) | drug sensitivity score [11] | drug sensitivity score [12] | drug sensitivity score [13] | drug sensitivity score [14] | drug sensitivity score [15] |
| --- | --- | --- | --- | --- | --- | --- | --- | --- | --- | --- | --- | --- | --- | --- | --- | --- | --- | --- | --- | --- | --- | --- | --- | --- | --- | --- | --- | --- | --- | --- | --- | --- | --- | --- | --- |
| COc1ccc(Cc2cnc(N)nc2N)cc1OC [diaveridine] | > 10 µM | > 10 µM | > 10 µM | > 10 µM | > 10 µM | 86.6% | 94.4% | 97.7% | 84.3% | 88.9% | 95.6% | 102% | 89.2% | 95.8% | 98% | 105% | 103% | 107% | 96.7% | 102% | 96.9% | 90.4% | 100% | 93% | 96.6% | 99.5% | 104% | 97% | 98.2% | 94.3% | 0 | 0 | 0 | 0 | 0 |
| CCN(CC)C(=O)N1CCN(C)CC1 [diethylcarbamazine] | > 10 µM | > 10 µM | > 10 µM | > 10 µM | > 10 µM | 102% | 91.4% | 103% | 103% | 102% | 88.1% | 100% | 105% | 101% | 107% | 103% | 97.8% | 102% | 91.4% | 98.1% | 98.2% | 95.4% | 97.2% | 88.5% | 99.9% | 103% | 97.5% | 102% | 103% | 99.3% | 0 | 0 | 0 | 0 | 0 |
| C[C@]12CC[C@H](O)C[C@H]1CC[C@@H]1[C@@H]2CC[C@]2(C)[C@@H](C3=CC(=O)OC3)CC[C@]12O [digitoxigenin] | 0.849 µM | 0.605 µM | 0.435 µM | 0.18 µM | 0.0448 µM | 97.7% | 93.4% | 104% | 50.5% | 17.7% | 118% | 117% | 94.5% | 39.2% | 12.2% | 105% | 105% | 101% | 16.4% | 6.9% | 78.9% | 84.9% | 84.1% | 36% | 42.3% | 108% | 97.3% | 13.2% | 0.7% | 0.6% | 10.5 | 12.4 | 15.2 | 13.5 | 28.4 |
| C[C@]12CC[C@H](O)C[C@H]1CC[C@@H]1[C@@H]2C[C@@H](O)[C@]2(C)[C@@H](C3=CC(=O)OC3)CC[C@]12O [digoxigenin] | 2.19 µM | 0.52 µM | 1.14 µM | 1.28 µM | 0.163 µM | 99.8% | 111% | 101% | 91.6% | 29% | 100% | 109% | 89.1% | 39.5% | 12.6% | 96.9% | 105% | 92.3% | 58.4% | 5.8% | 92.9% | 106% | 114% | 80.5% | 44.6% | 107% | 108% | 77.4% | 1.3% | 1.1% | 5.3 | 12.8 | 10 | 5.7 | 21.4 |
| OCCN(CCO)c1nc(N2CCCCC2)c2nc(N(CCO)CCO)nc(N3CCCCC3)c2n1 [dipyridamole] | > 10 µM | > 10 µM | > 10 µM | > 10 µM | > 10 µM | 99.1% | 103% | 112% | 96.4% | 104% | 94.2% | 101% | 96.6% | 100% | 96.7% | 103% | 99.2% | 101% | 102% | 99.8% | 114% | 98.9% | 102% | 96.2% | 87.1% | 104% | 90.1% | 108% | 95% | 95.3% | 0 | 0 | 0 | 0.3 | 0 |
| CCCCCCCCCCCCCCCCCCCCCCO [docosanol] | > 10 µM | > 10 µM | > 10 µM | > 10 µM | > 10 µM | 87.6% | 97.6% | 96.4% | 102% | 96.5% | 104% | 100% | 104% | 93.2% | 85.1% | 92.3% | 96.2% | 94.6% | 98.6% | 105% | 95.8% | 92.2% | 99.5% | 116% | 82.1% | 108% | 98.4% | 98.2% | 88.4% | 104% | 0 | 0.7 | 0 | 0.2 | 0 |
| C=C1/C(=C\C=C2/CCC[C@]3(C)[C@@H]([C@H](C)/C=C/[C@H](C)C(C)C)CC[C@@H]23)C[C@@H](O)C[C@@H]1O [doxercalciferol] | > 10 µM | > 10 µM | > 10 µM | > 10 µM | > 10 µM | 95.3% | 102% | 99.9% | 95.8% | 111% | 101% | 94.8% | 99.8% | 96.4% | 99.9% | 92.2% | 102% | 94.9% | 96.7% | 100% | 104% | 103% | 96.3% | 98.2% | 97.2% | 97.7% | 101% | 97.1% | 95.9% | 106% | 0 | 0 | 0 | 0 | 0 |
| CCCCCCCC(=O)N[C@H](CN1CCCC1)[C@H](O)c1ccc2c(c1)OCCO2 [eliglustat] | > 10 µM | > 10 µM | > 10 µM | > 10 µM | > 10 µM | 98.7% | 98.3% | 96% | 99.5% | 93.2% | 100% | 109% | 95.8% | 108% | 92% | 101% | 95.4% | 97.8% | 94.6% | 95.3% | 103% | 96.7% | 95.1% | 99.8% | 99.8% | 97.3% | 91.6% | 84.3% | 84.2% | 85.5% | 0 | 0 | 0 | 0 | 3.1 |
| CCOCCn1c(N2CCCN(C)CC2)nc2ccccc21 [emedastine] | > 10 µM | > 10 µM | > 10 µM | > 10 µM | > 10 µM | 94.2% | 101% | 99.3% | 112% | 106% | 89% | 98.4% | 92.7% | 101% | 107% | 97.4% | 96.3% | 93% | 98.4% | 96% | 97.3% | 102% | 102% | 95.4% | 91.2% | 99.1% | 105% | 100% | 98.4% | 99.8% | 0 | 0 | 0 | 0 | 0 |
| OC[C@H]1O[C@@H](c2ccc(Cl)c(Cc3ccc(O[C@H]4CCOC4)cc3)c2)[C@H](O)[C@@H](O)[C@@H]1O [empagliflozin] | > 10 µM | > 10 µM | > 10 µM | > 10 µM | > 10 µM | 87.9% | 110% | 114% | 98.7% | 101% | 99.4% | 109% | 91.9% | 109% | 117% | 98.6% | 92.3% | 103% | 96.7% | 96.4% | 95% | 97.3% | 102% | 94.7% | 104% | 90% | 103% | 95% | 94.9% | 106% | 0 | 0 | 0 | 0 | 0 |
| CSc1ccc(C(=O)c2[nH]c(=O)[nH]c2C)cc1 [enoximone] | > 10 µM | > 10 µM | > 10 µM | > 10 µM | > 10 µM | 106% | 101% | 94.2% | 96.7% | 101% | 96.6% | 95.8% | 103% | 82.5% | 100% | 99.2% | 97.9% | 101% | 108% | 105% | 92.8% | 87.2% | 100% | 111% | 87% | 99.6% | 99.6% | 86% | 90.6% | 94.9% | 0 | 0 | 0 | 0 | 0 |
| CCOc1ccc(Cc2cc([C@]34OC[C@](CO)(O3)[C@@H](O)[C@H](O)[C@H]4O)ccc2Cl)cc1 [ertugliflozin] | > 10 µM | > 10 µM | > 10 µM | > 10 µM | > 10 µM | 106% | 99.1% | 104% | 98.7% | 96.4% | 108% | 109% | 107% | 98.6% | 98.6% | 101% | 102% | 102% | 98.1% | 101% | 96.8% | 96.9% | 90.5% | 89.9% | 103% | 102% | 104% | 95.1% | 101% | 102% | 0 | 0 | 0 | 0 | 0 |
| CCc1cc(Cl)c(OC)c(C(=O)NC[C@@H]2CCCN2CC)c1O [eticlopride] | > 10 µM | > 10 µM | > 10 µM | > 10 µM | > 10 µM | 105% | 102% | 103% | 99.9% | 98.5% | 115% | 108% | 121% | 106% | 91.4% | 99.1% | 106% | 96.3% | 103% | 94.8% | 102% | 101% | 92.5% | 103% | 87% | 107% | 102% | 106% | 102% | 94.7% | 0 | 0 | 0 | 0.1 | 0 |
